In patent US20050170391A1, “TAUT1 transporters expressed in blood brain barrier cells” (Xenoport, Inc., priority 2004, published 2005):
Several values for one entry are separate records, joined by “and”; a condition that tells them apart may be missing. Identical values can stand only once. Blank lines part the entries; values can stand above or below the molecule they belong to.

Key:
TAUT1 [1] = molecular target: T1, TAUT1 (Homo sapiens, UniProt P31641); conditions: reported value, source not given; cited from earlier work
T1 sequence (P31641 1-620): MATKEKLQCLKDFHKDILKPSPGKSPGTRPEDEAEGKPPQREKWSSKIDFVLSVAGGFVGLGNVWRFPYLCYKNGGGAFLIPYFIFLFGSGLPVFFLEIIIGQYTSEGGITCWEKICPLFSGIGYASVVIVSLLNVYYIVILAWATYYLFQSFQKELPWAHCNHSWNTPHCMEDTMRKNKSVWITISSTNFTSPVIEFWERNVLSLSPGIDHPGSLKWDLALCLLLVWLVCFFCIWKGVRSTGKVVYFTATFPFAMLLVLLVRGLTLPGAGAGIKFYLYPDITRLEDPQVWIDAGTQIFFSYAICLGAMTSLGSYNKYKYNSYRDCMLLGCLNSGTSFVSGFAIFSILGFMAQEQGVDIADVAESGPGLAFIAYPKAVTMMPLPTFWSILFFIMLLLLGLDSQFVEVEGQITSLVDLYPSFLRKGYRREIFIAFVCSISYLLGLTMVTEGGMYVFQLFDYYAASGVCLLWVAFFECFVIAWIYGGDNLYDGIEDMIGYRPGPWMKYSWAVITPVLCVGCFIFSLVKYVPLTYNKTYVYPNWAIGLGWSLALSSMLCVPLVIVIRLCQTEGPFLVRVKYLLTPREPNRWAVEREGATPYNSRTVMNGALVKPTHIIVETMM

TAUT1 [2] = molecular target: T1, TAUT1; assay: ^3H-taurine uptake by Xenopus oocytes injected with TAUT1 cRNA; type: cell-based; design: expressed in transfected cells; host or cells: Xenopus oocytes injected with TAUT1 cRNA; conditions: oocytes expressing TAUT1 vs noninjected controls (FIG. 2)
TAUT1 [3] = molecular target: T1, TAUT1; assay: hTAUT1 competition uptake assay in HEK-TREx-TAUT1 cells; type: cell-based; design: expressed in transfected cells; host or cells: HEK-TREx cells (HEK-TREx-TAUT1 inducible line)
Protocol: A modified competition uptake assay was developed to determine the ability of a test compound(s) to inhibit the uptake of radiolabeled substrates into HEK-TREx-TAUT1 cells induced to over-express hTAUT. The results are stated as affinities (IC50).
The competition uptake assay were prepared as follows: Compounds were prepared for assay by diluting a 100 mM stock concentration (in DMSO) to the appropriate working concentration. Typically, seven-point dose response curves were prepared starting at a final assay concentration of 1 mM and carrying out three-fold dilutions. These dilutions were prepared by making a working “compound” plate that contained a 2× solution of the desired starting concentration of each test compound in duplicate in row A of a v-bottom microtiter plate. Six 3-fold serial dilutions (from row B to G) were made into the HBSS assay buffer (9.8 g/L Hank's Balance Salts (Sigma; H-1387), 2.6 g/L HEPES (10 mM) (Sigma; H-3375), 0.35 g/L NaHCO3 (4.2 mM) (Sigma; S-6297), pH to 7.4 with 5N NaOH) (with the appropriate amount of DMSO so that the DMSO concentration remains constant at all dilutions). The resulting “compound” plate contained serial dilutions of six compounds in duplicate.
^3H-GABA was diluted into HBSS buffer to a final concentration of 4,000 cpm/μl. Enough solution was prepared to allow addition of 25 μl/well (the final concentration was 100,000 cpm/well).
HEK-TREx-hTAUT cells, plated in 96-well plates and treated with tetracycline (or tet analog (e.g., doxycycline), were removed from the incubator. Growth media was removed from the cells, and the cells were washed twice in room temperature HBSS (100 μl/well/wash) using a 96-well plate washer (Bio Tek ELX405). Alternatively, cells were washed manually with equivalent volumes using a multichannel pipettor. Immediately before beginning the assay, the final 100 μl wash solution was removed from the cells by aspiration.
Using a 96-well pipettor, 25 μl from the “compound” plate was added to each well of the cell plate. The assay was started by adding 25 μl of the ^3H-GABA working solution. The plate was incubated at room temperature for 15 minutes. The assay was stopped by washing the cells four times with ice-cold HBSS buffer using a ELX 405 plate washer (100 μl buffer/well/wash) having an angled buffer dispenser.
Scintillation fluid (200 μl) (Optiphase Supermix (Perkin Elmer) was added to each well, and the plate was covered with a 96-well adhesive plate cover and placed on a shaker for 10 minutes. The plates were counted on a 96-well plate scintillation counter for 60 sec/well. The data were analyzed using a sigmoidal dose response curve-fitting program ((Prism, GraphPad, Inc, San Diego, Calif.; equation: one-site competition).
FIG. 7 depicts the results of a competition experiment using HEK-TREx-TAUT1 cells. ^3H-taurine was used as the substrate and unlabeled taurine was used as the competitor. The competition experiment was performed as described in Example 7. Non-specific uptake was determined by measuring the uptake into cells not induced to express the transporter (“no tet”). […] In control cells, uptake of labeled taurine remained at background levels and was largely unaffected by an excess of unlabeled taurine.
These four compounds, IAA, R,S-Baclofen, GPA, and GABA, were tested in both competition and direct uptake assays. One notable difference in the competition assay format compared to the literature is that ^3H-GABA was used, rather than ^3H-taurine, as the radiolabel. […] Therefore, to develop a competition assay that is as sensitive as possible, ^3H-GABA, a substrate with a much […] affinity, was used.

PgP = PgP (Homo sapiens, UniProt P08183); assay: Cellular transwell monolayer efflux assay, MDCK cells with TREx-PgP
Protocol: A third type of efflux transporter assay is the cellular transwell monolayer efflux assay. In this assay, cells expressing efflux transporters, such as MDCK cells containing the TREx-PgP expression vector (Invitrogen Inc., Carlsbad, Calif.), are seeded and grown in transwell dishes on filter membranes made of substances such as polycarbonate. The cells form a polarized monolayer. The transwell dishes have apical and basolateral chambers that are separated by the filter membrane on which the polarized monolayer is situated. Assays are performed by placing a test compound in either the apical or basolateral chamber, followed by sampling the opposite chamber after a predetermined period of time such as 60-120 minutes and measuring the amount of the test compound. The test compound can be measured by methods such as radiolabel detection or LC-MS-MS analysis. Assays are performed in the presence and absence of an efflux transporter inhibitor or competitor. Efflux transporter inhibitors or competitors increase apical to basolateral transport and decrease basolateral to apical transport of compounds that are efflux transporter substrates. Apparent permeability (Papp) of test compounds is measured. […] Test compounds that generate ratios between 1.5 and 2.0 require additional testing to determine if they are efflux transporter substrates. An agent, conjugate, or conjugate moiety that is a TAUT1 substrate and also generates a ratio of greater than 2.0 can be modified.
MDCK cells transfected with the tetracycline-inducible TREx-PgP expression vector were seeded on polycarbonate filter membranes in transwell dishes and grown for 3-5 days, yielding a polarized monolayer with tight junctions between cells. […] The left set of bars depicts apical to basolateral transport, while the right set of bars depicts basolateral to apical transport.

[4] = substrate: NCCCC(=O)O; assay: cells, lysate or membranes; conditions: other: direct uptake into HEK-TREx-TAUT1 cells, +TET minus no TET; 15 min, room temperature
[5] = 2.5 nM ^3H-vinblastine, in the presence of 250 μM verapamil vs absence (FIG. 6)

Chain of PgP (P08183 whole entry): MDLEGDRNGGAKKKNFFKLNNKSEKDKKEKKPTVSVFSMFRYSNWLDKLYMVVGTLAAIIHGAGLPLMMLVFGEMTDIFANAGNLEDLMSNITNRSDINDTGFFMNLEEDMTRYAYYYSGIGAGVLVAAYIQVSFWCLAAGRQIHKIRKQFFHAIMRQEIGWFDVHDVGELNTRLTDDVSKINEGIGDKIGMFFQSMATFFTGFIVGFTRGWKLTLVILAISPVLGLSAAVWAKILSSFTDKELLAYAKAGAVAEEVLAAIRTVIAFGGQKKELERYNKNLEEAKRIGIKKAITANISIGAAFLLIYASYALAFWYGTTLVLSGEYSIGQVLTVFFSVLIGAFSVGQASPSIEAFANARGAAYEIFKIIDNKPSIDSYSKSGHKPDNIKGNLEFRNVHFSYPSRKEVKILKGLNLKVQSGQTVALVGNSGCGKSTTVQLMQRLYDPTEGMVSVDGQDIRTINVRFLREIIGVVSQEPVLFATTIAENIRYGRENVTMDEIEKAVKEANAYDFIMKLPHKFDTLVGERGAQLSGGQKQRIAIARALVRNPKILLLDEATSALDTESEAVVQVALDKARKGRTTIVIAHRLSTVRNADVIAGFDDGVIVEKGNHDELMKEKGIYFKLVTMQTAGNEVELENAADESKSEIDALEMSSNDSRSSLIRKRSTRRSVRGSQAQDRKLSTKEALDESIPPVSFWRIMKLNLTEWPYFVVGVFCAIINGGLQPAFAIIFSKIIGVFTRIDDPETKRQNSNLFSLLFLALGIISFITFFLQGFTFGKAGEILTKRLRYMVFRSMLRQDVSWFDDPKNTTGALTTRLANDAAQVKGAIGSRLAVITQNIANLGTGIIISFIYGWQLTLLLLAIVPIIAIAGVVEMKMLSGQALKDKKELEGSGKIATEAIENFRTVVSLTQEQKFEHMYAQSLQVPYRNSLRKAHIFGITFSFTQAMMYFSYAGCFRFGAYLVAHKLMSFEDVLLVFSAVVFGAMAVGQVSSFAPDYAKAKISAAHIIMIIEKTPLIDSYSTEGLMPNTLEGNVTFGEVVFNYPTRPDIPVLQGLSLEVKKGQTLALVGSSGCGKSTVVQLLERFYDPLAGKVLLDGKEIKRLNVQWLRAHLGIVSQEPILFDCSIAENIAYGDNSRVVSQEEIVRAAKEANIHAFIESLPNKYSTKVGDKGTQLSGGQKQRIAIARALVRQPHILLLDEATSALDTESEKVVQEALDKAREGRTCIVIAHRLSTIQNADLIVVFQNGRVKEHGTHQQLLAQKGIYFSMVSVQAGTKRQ

IC50 (TAUT1 [3]; HEK-TREx-TAUT1 cells induced with tetracycline, ^3H-GABA radiolabel (taurine: ^3H-taurine per Example 9), 15 min, room temperature): 10 µM
radiolabel uptake (TAUT1 [3]; ^3H-taurine as radiolabel in HEK-TREx-TAUT1 cells, in a very short time): > 25 % of the input cpm
Molecule: NCCS(=O)(=O)O [Taurine]
Reported Affinity for TAUT1 (TAUT1 [1]): 0.1 mM
^3H-taurine uptake (TAUT1 [2]): higher levels of ^3H-taurine uptake than noninjected controls
uptake of labeled taurine with increasing unlabeled taurine (TAUT1 [3]; ^3H-taurine substrate, unlabeled taurine competitor, cells induced to express TAUT1 (FIG. 7)): the uptake of labeled taurine decreased as the concentration of unlabeled taurine increased

Molecule: CC[C@]1(O)C[C@@H]2CN(CCc3c([nH]c4ccccc34)[C@@](C(=O)OC)(c3cc4c(cc3OC)N(C)[C@H]3[C@@](O)(C(=O)OC)[C@H](OC(C)=O)[C@]5(CC)C=CCN6CC[C@]43[C@@H]65)C2)C1 [^3H-vinblastine]
Apical to basolateral transport (PgP; [5]): strongly increased
basolateral to apical transport (PgP; [5]): strongly decreased
PgP substrate status (PgP; conclusion from transwell transport with and without verapamil): substrate of PgP

B1: hTAUT1 (Homo sapiens) (protein)
chain: MATKEKLQCLKDFHKDILKPSPGKSPGTRPEDEAEGKPPQREKWSSKIDFVLSVAGGFVGLGNVWRFPYLCYKNGGGAFLIPYFIFLFGSGLPVFFLEIIIGQYTSEGGITCWEKICPLFSGIGYASVVIVSLLNVYYIVILAWATYYLFQSFQKELPWAHCNHSWNTPHCMEDTMRKNKSVWITISSTNFTSPVIEFWERNVLSLSPGIDHPGSLKWDLALCLLLVWLVCFFCIWKGVRSTGKVVYFTATFPFAMLLVLLVRGLTLPGAGAGIKFYLYPDITRLEDPQVWIDAGTQIFFSYAICLGAMTSLGSYNKYKYNSYRDCMLLGCLNSGTSFVSGFAIFSILGFMAQEQGVDIADVAESGPGLAFIAYPKAVTMMPLPTFWSILFFIMLLLLGLDSQFVEVEGQITSLVDLYPSFLRKGYRREIFIAFVCSISYLLGLTMVTEGGMYVFQLFDYYAASGVCLLWVAFFECFVIAWIYGGDNLYDGIEDMIGYRPGPWMKYSWAVITPVLCVGCFIFSLVKYVPLTYNKTYVYPNWAIGLGWSLALSSMLCVPLVIVIRLCQTEGPFLVRVKYLLTPREPNRWAVEREGATPYNSRTVMNGALVKPTHIIVETMM
Km [4]: 270 µM and 200 µM
